According to patent US5780474A, “3-(piperid-4-yl)-1,2-benzisoxazole and 3-(piperazin-4-yl)-1,2-benzisoxazole compounds” (Adir et Compagnie, priority 1996, dated 1998):

What was measured:
[1] = system: aggressiveness in isolated mice; test: Test of aggressiveness in isolated mice; type: in vivo; details: Mus musculus, sc, administered subcutaneously 30 minutes before test, read-out: ID50 number or duration of the attacks
From the text: 3. Test of aggressiveness in isolated mice
This test allows the evaluation of the intraspecies anti-aggressive activity of a product in mice that have been kept in isolation for several months.
Animals: The test uses male CD mice (Charles River) weighing from 22 to 25 g on arrival at the animal house. Immediately on arrival the animals are isolated in individual cages made of opaque black polycarbonate (23×14×13 cm) having a grill lid, and are housed for a prolonged period (approximately 6 months) in the experimentation room.
Selection of pairs of mice: The selection of pairs of aggressive mice that will be used on a long-term basis in the study starts after the animals have been isolated for one month. Once or twice per week a mouse from another cage (intruder) is placed in the cage of a (resident) mouse and the two animals are observed to see if they attack one another (sniffing, pursuing, nipping, biting) during that trial. At the end of the trial (maximum duration of 10 minutes), each mouse is isolated again in its own cage. If attacks have occurred, the same pair will be tested again in the next trial; if there have been no attacks, each mouse of that pair will be placed in the presence of a different mouse in the following trial. […]

[2] = system: verticalisation induced by apomorphine; test: Verticalisation induced by apomorphine in the mouse; type: in vivo; details: sc, product s.c. 30 min before apomorphine 0.75 mg/kg s.c., read-out: ID50 verticalisation
Method: 1. Verticalisation induced by apomorphine (0.75 mg/kg, s.c.) in the mouse
This test, described by Protais et al., Psychopharmacology, 50, 1-6 (1976), allows the evaluation of the dopaminergic antagonist activity of possible anti-psychotic products. A mouse to which apomorphine has been administered and which has been placed in a cage with vertical bars will, most of the time, remain immobile at the top of the cage, clinging by its four paws to the bars. This verticalisation behaviour is blocked if a dopaminergic antagonist product has been administered before the apomorphine.
Test immediately after subcutaneous (s.c.) administration of the product or solvent (control group), the mouse is placed in a cylindrical cage (14 cm diam.×14 cm height) with vertical bars. Thirty minutes later, the animal receives the dose of apomorphine (0.75 mg/kg, s.c.). […]
Statistical analysis: The effect of the product on verticalisation is evaluated by comparing the scores obtained for each group that has received a dose of product with those obtained for the control group (solvent) using a Mann and Whitney U test with a probability of p<0.05. […]

in vivo = details: rat
From the text: Induction of catalepsy in the rat
Test: the animals are placed in individual cages and food is withdrawn the day before the test, but drink is taken as desired. The catalepsy test comprises placing each rear paw of the animal on the front paw of the same side and measuring the time (seconds) during which the animal remains in that "crossed paws" position (maximum 30 seconds). Each animal is subjected to three successive tests (one every two minutes), the animal being removed from its cage and placed on the work surface. The tests are carried out one hour after the subcutaneous injection or oral administration of the product or its solvent. The average value of the three tests represents the duration of the catalepsy (in seconds) for each animal. There are five or six rats per experimental group.
Statistical analysis: The effect of the product on the duration of catalepsy is evaluated by an ANOVA, followed by a Dunnett's test, with a probability of p<0.05.

[3] = system: conditioned avoidance response; test: Active avoidance conditioning in the rat; type: in vivo; details: sc, administered subcutaneously 30 minutes before the session, read-out: ID50 conditioned avoidance responses
Method: 2. Active avoidance conditioning in the rat
This test is conventionally used to characterise anti-psychotic products, cf. P. A. Janssen, C. J. E. Niemegeers, Arzneim-Forsch., 1037-1043 (1961).
It is carried out in a cage having two compartments with an electrified floor, on rats that have been conditioned in the following manner: on presentation of a light signal, the animal must move from the compartment in which it is situated to the other compartment in order not to receive an electric shock. The response of the animal to the light signal is a conditioned Avoidance response. […] The response to the electric shock is an unconditioned Escape response.
Conventionally, anti-psychotic products inhibit the conditioned Avoidance response at doses lower than those which inhibit the non-conditioned Escape response. That differentiates them from other classes of products (in particular, barbiturates and benzodiazepines), which inhibit both responses alike. […]
Test: the animals are their own controls. […] The effects of a product on the avoidance responses are evaluated during a Test Session which takes places the day after a Control Session during the course of which the animals will have received the solvent. […]

ED50 at 1 h (in vivo) [mg/kg] | ED50 at 1 h (in vivo; sc) [mg/kg] | Compound | ED50 [1] [mg/kg] | ED50 [2] [mg/kg] | ED50 [3] [mg/kg]
34 |  | O=C1N(CCN2CCC(c3noc4cc(F)ccc34)CC2)CCN1c1ccccc1 [Example 5, 1-{2-[4-(6-Fluoro-1,2-benzisoxazol-3-yl)piperid-1-yl]ethyl}-3-phenylimidazolidin-2-one] | 0.18 | 0.22 | 0.88
 | 0.15 | O=C(CCCN1CCC(O)(c2ccc(Cl)cc2)CC1)c1ccc(F)cc1 [haloperidol, reference compound] |  |  | 
